Reference: US20170334899A1, “AMINO-SUBSTITUTED ISOTHIAZOLES” (Bayer Pharma Aktiengesellschaft, priority 2014, published 2017)
pIC50: −log10 of the molar value.

What was measured:
CDK2/CycE = molecular target: T1, CDK2/CycE (Homo sapiens, UniProt P24941); assay: CDK2/CycE kinase assay (TR-FRET); type: biochemical; details: avg, read-out: CDK2 avg (IC50 [mol/l])
T1 construct: GST; purchased ProQinase GmbH (Freiburg, Germany); host or cells: insect cells (Sf9)
Method in brief: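 Read-out is a TR-FRET 665/620 nm emission ratio from EDTA-stopped reactions detected with anti-pRB(pSer807/pSer811), Eu-labelled anti-mouse IgG and streptavidin-XL665, scaled between no-enzyme and uninhibited wells. Reaction: Sf9-expressed GST-CDK2/GST-CycE, 15 min compound preincubation, 10 μM ATP, 0.75 μM biotin-peptide, 25 min, 22° C., pH 8.0 Tris buffer.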

[1] = molecular target: T2, catalytic domain of human Bub1 (amino acids 704-1085) (Homo sapiens, UniProt O43683); assay: Bub1 kinase assay (TR-FRET); type: biochemical; details: 10 μM ATP, avg, read-out: Bub1 avg (IC50 [mol/l])
T2 construct: catalytic domain of human Bub1 (amino acids 704-1085); His6 (N); made in house; host or cells: insect cells (Hi5)
Method in brief: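 Readout is the 665/620 nm TR-FRET ratio from anti-phosphoserine antibody, Eu-labelled anti-mouse IgG and streptavidin-XL665, scaled between no-enzyme and uninhibited controls. Reaction: 1 μM biotinylated peptide, 10 μM ATP, 60 min, 22 °C, after 15 min compound preincubation with His6-Bub1 (704-1085, insect-expressed, ~200 ng/ml).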

T2 sequence (O43683 704-1085): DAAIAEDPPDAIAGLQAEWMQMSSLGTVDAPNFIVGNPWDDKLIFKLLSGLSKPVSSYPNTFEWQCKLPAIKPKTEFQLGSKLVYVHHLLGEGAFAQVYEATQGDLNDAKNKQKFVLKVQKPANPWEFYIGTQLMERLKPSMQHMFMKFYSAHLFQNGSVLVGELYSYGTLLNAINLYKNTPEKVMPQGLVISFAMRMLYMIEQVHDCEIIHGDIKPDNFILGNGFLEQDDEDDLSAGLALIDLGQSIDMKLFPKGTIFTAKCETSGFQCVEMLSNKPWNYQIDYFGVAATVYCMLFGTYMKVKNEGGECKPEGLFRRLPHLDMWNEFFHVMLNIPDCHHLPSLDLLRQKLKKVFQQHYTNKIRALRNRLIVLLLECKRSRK

Cc1nsc(Nc2cnc(C(F)(F)F)cn2)c1C(=O)Nc1ccc(F)c(OC[C@H]2CCCN(CCC(F)(F)F)C2)c1 [Example 418, N-(4-Fluoro-3-{[(3S)-1-(3,3,3-trifluoropropyl)piperidin-3-yl]methoxy}phenyl)-3-methyl-5-{[5-(trifluoromethyl)pyrazin-2-yl]amino}-1,2-thiazole-4-carboxamide]
pIC50 (CDK2/CycE): < 4.70
pIC50 [1]: < 4.70

Cc1nsc(Nc2cnc(C(F)(F)F)cn2)c1C(=O)Nc1ccc(F)c(OC[C@H]2CCCN(CC(F)(F)F)C2)c1 [Example 419, N-(4-Fluoro-3-{[(3S)-1-(2,2,2-trifluoroethyl)piperidin-3-yl]methoxy}phenyl)-3-methyl-5-{[5-(trifluoromethyl)pyrazin-2-yl]amino}-1,2-thiazole-4-carboxamide]
pIC50 (CDK2/CycE): < 4.70
pIC50 [1]: < 4.70

Cc1nsc(Nc2cnc(C(F)(F)F)cn2)c1C(=O)Nc1ccc(CCC2CCN(CCC(F)(F)F)CC2)nc1 [Example 420, 3-Methyl-5-{[5-(trifluoromethyl)pyrazin-2-yl]amino}-N-(6-{2-[1-(3,3,3-trifluoro-propyl)piperidin-4-yl]ethyl}pyridin-3-yl)-1,2-thiazole-4-carboxamide]
pIC50 (CDK2/CycE): < 4.70
pIC50 [1]: ≤ 4.70

Cc1nsc(Nc2cnc(C(F)(F)F)cn2)c1C(=O)Nc1ccc(OCCNC(=O)C(F)(F)F)nc1 [Example 425, 3-Methyl-N-(6-{2-[(trifluoroacetyl)amino]ethoxy}pyridin-3-yl)-5-{[5-(trifluoro-methyl)pyrazin-2-yl]amino}-1,2-thiazole-4-carboxamide]
pIC50 (CDK2/CycE): ≤ 4.70
pIC50 [1]: ≤ 4.70

Cc1nsc(Nc2cnc(C(F)(F)F)cn2)c1C(=O)Nc1ccc(F)c(OCCCNC(=O)C(F)(F)F)c1 [Example 427, N-(4-Fluoro-3-{3-[(trifluoroacetyl)amino]propoxy}phenyl)-3-methyl-5-{[5-(trifluoro-methyl)pyrazin-2-yl]amino}-1,2-thiazole-4-carboxamide]
pIC50 (CDK2/CycE): ≤ 4.70
pIC50 [1]: ≤ 4.70

Cc1nsc(Nc2cnc(C(F)(F)F)cn2)c1C(=O)Nc1ccc(OCCCNC(=O)C(F)(F)F)nc1 [Example 428, 3-Methyl-N-(6-{3-[(trifluoroacetyl)amino]propoxy}pyridin-3-yl)-5-{[5-(trifluoro-methyl)pyrazin-2-yl]amino}-1,2-thiazole-4-carboxamide]
pIC50 (CDK2/CycE): < 4.70
pIC50 [1]: < 4.70

Cc1nsc(Nc2cnc(C(F)(F)F)cn2)c1C(=O)Nc1ccc(OCCN(C)C(=O)OC(C)(C)C)nc1 [Example 429, tert-Butyl methyl{2-[(5-{[(3-methyl-5-{[5-(trifluoromethyl)pyrazin-2-yl]amino}-1,2-thiazol-4-yl)carbonyl]amino}pyridin-2-yl)oxy]ethyl}carbannate]
pIC50 (CDK2/CycE): < 4.70
pIC50 [1]: < 4.70

Cc1nsc(Nc2cncc(C(F)(F)F)n2)c1C(=O)Nc1ccc(OCCN(C)C(=O)OC(C)(C)C)nc1 [Example 430, tert-Butyl methyl{2-[(5-{[(3-methyl-5-{[6-(trifluoromethyl)pyrazin-2-yl]amino}-1,2-thiazol-4-yl)carbonyl]amino}pyridin-2-yl)oxy]ethyl}carbannate]
pIC50 (CDK2/CycE): < 4.70
pIC50 [1]: < 4.70

Cc1nsc(Nc2cnc(C(F)(F)F)cn2)c1C(=O)Nc1ccc(OC2CCNCC2)c(F)c1 [Example 431, N-[3-Fluoro-4-(piperidin-4-yloxy)phenyl]-3-methyl-5-{[5-(trifluoromethyl)pyrazin-2-yl]amino}-1,2-thiazole-4-carboxamide]
pIC50 (CDK2/CycE): < 4.70
pIC50 [1]: < 4.70

Cc1nsc(Nc2cnc3ccccc3n2)c1C(=O)Nc1cccc(NC(=O)C(F)(F)F)c1 [Example 432, 3-Methyl-5-(quinoxalin-2-ylamino)-N-{3-[(trifluoroacetyl)amino]phenyl}-1,2-thiazole-4-carboxamide]
pIC50 (CDK2/CycE): < 4.70
pIC50 [1]: < 4.70

Cc1nsc(Nc2cnc3ccccc3n2)c1C(=O)Nc1ccc(NCCN(C)C(=O)OC(C)(C)C)nc1 [Example 434, tert-Butyl methyl(2-{[5-({[3-methyl-5-(quinoxalin-2-ylamino)-1,2-thiazol-4-yl]carbonyl}amino)pyridin-2-yl]amino}ethyl)carbamate]
pIC50 (CDK2/CycE): < 4.70
pIC50 [1]: < 4.70

CC(=O)Nc1ccc(NC(=O)c2c(C)nsc2Nc2ccc(C#N)cn2)cn1 [Example 435, N-(6-Acetamidopyridin-3-yl)-5-[(5-cyanopyridin-2-yl)amino]-3-methyl-1,2-thiazole-4-carboxamide]
pIC50 (CDK2/CycE): < 4.70
pIC50 [1]: < 4.70
